Article PMC5397059, “Design, synthesis and structure-activity relationship study of wollamide B; a new potential anti TB agent” (PLoS ONE, 2017)
In brackets after ≈: the same amount, converted by molar mass. Several values for one entry are separate records, joined by “and”; a condition that tells them apart may be missing. Equal values may be shown once. Read-outs that look alike come from different tables or passages of the source. Non-standard residues stand in square brackets, D forms with d. Residues, ends and D or L forms follow the SMILES beside them. dOrn = NCCC[C@@H](N)C(=O)O

Experiments:
mycobacteria = test system: mycobacteria; design: method as in PMID 25229313; details: cited from earlier work
[1] = Intrinsic clearance (CLint) assay, mouse liver microsomes; assay type: in vitro ADME; details: for CLint Mouse: mouse liver microsomes; for half-life at 0.5 µM: mouse, pooled mouse liver microsomes, pH 7.4; for CLpred Mouse: predicted metabolic clearance
Summary of the method: (§1)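 Pooled liver microsomes (0.5 mg/mL protein) with test compound at 0.5 μM (0.5% DMSO), 5 mM MgCl2 and pH 7.4 phosphate buffer were run at 37°C; 1 mM NADPH started the reaction. Samples at 0-45 min were analysed by LC-MS/MS; t1/2 and CLint were derived from the ln peak-area-ratio slope.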

Chrom logD assay = assay type: physicochemical
Summary of the method: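 Reversed-phase C18 HPLC with fast acetonitrile gradient starting from 100% pH 7.4 buffer; CHI from retention times via calibration standards. ChromlogD = 0.0857CHI − 2.00; assay error ±3 CHI or ±0.25 ChromlogD.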

[2] = Plasma stability assay, human plasma; assay type: in vitro ADME; details: for remaining at 2 h, 1 uM: human, plasma
Description: (§2) Plasma stability of the compounds was assessed in CD1 mouse and human plasma. Plasma was spiked with 1 μL of a 10 mM of each test compound solution to produce a 1 uM incubation. Three separate 300 μl aliquots were then taken from each tube and incubated at 37°C for 2 h. At each time point (0, 15, 30, 60 and 120 min), 50 μL of plasma were collected from each sample. Samples were extracted by protein precipitation with 250 μL of 0.1% AcOH acetonitrile methanol 3–1 (v/v) containing 1uM internal standard and centrifuged for 10min at 2800rpm. Supernatants were collected prior the injection onto an LC-MS/MS system. Analyte/Internal standard peak area ratios were referenced to the zero time-point samples as 100% in order to determine the percentage of compound remaining for each time-point. Ln plots of the % remaining for each compound were used to determine the half-life for the plasma incubations.

[3] = Chemi-Luminescent Nitrogen Detection (CLND) kinetic solubility assay; assay type: physicochemical; details: phosphate buffered saline, pH 7.4
Summary of the method: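 10 mM DMSO stock diluted 5 μL into 100 uL pH 7.4 phosphate buffered saline, equilibrated 1 h at room temperature, then filtered. Filtrate quantified by calibrated flow-injection CLND; standard error ±30 μM, upper limit 500 μM.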

[4] = Artificial membrane permeability assay; assay type: in vitro ADME; details: PAMPA, pH 7.4
Summary of the method: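 PAMPA using L-α-phosphatidylcholine in cholesterol decane as the membrane, with 50 mM phosphate buffer containing 0.5% encapsin at pH 7.4 on both sides. Compound added to donor; plates shaken 3 h at room temperature in duplicate. Donor and receiver concentrations measured by HPLC; permeability reported in nm/sec.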

human serum albumin [5] = target: T1, human serum albumin (Homo sapiens, UniProt P02768); test: Human serum albumin (HSA) binding assay; assay type: in vitro ADME; details: for % HSA: human serum albumin binding
T1 sequence (P02768 25-609): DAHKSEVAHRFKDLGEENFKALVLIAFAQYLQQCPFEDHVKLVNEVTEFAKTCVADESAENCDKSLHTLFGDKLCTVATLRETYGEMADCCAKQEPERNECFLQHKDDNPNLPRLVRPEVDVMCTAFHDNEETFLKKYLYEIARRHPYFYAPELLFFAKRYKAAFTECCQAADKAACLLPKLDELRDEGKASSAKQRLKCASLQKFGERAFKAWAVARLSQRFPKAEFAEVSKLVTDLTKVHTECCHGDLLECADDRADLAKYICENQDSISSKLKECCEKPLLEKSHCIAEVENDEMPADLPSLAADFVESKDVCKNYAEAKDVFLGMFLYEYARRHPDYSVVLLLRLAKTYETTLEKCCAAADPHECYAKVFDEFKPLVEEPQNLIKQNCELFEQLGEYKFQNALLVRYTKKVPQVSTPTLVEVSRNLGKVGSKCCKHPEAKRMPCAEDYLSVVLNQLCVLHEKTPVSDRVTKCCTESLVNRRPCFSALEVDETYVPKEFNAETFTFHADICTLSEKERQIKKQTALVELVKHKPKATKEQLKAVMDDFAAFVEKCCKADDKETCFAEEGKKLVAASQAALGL
Summary of the method: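 Gradient retention times measured on an immobilized HSA HPLC column with UV detection. Retention times converted to HSA binding values by a linear calibration against reference compounds of known binding, run before each batch.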

[6] = Intrinsic clearance (CLint) assay, human liver microsomes; assay type: in vitro ADME; details: for CLint Human: human liver microsomes; for half-life at 0.5 µM: human, pooled human liver microsomes; for CLpred Human: predicted metabolic clearance
Summary of the method: as §1

Mtb H37Rv = details: for MIC against Mtb H37Rv: duplicate, analogues
[7] = Plasma stability assay, mouse plasma; assay type: in vitro ADME; details: for remaining at 2 h, 1 uM: CD1, mouse, plasma
Description: as §2

human serum albumin [8] = target: T1, human serum albumin; test: HPLC retention on an immobilised HSA column; HSA immobilised on the column; gradient retention times of the compounds converted to % HSA binding by a calibration set of compounds of known HSA binding; UV detection
M. bovis = details: cited from earlier work
[9] = test system: intracellular mycobacterial survival in murine bone marrow-derived macrophages; design: method as in PMID 25229313; details: cited from earlier work
[10] = read-out: Microsomal t1/2 Mouse
[11] = 2 hours at 37°C, triplicates, read-out: Plasma stability (% remaining) Human
[12] = kinetic aqueous solubility by CLND, read-out: Solubility
[13] = passive artificial membrane permeability, read-out: Permeability
[14] = pH 7.4, human liver microsomes, read-out: Microsomal t1/2 Human
[15] = 2 hours at 37°C, triplicates, read-out: Plasma stability (% remaining) Mouse

## desotamide B
mycobacteria
  antimycobacterial activity: no antimycobacterial activity

## CC(C)C[C@@H]1NC(=O)[C@@H](CC(C)C)NC(=O)[C@@H](CCCN)NC(=O)[C@H](CC(N)=O)NC(=O)[C@H](C(C)C)NC(=O)[C@H](Cc2c[nH]c3ccccc23)NC1=O [Compound 21c] (cyclo(LWVN[dOrn][dL]))
[1]; liver blood flow
  % LBF Mouse: <16.83%
[1]
  CLint Mouse: <0.50 mL/min/g tissue
  CLpred Mouse: <21.21 mL/min/kg
[1]; [10]
  half-life at 0.5 µM: > 139 min
Chrom logD assay; pH 7.4, read-out: Log D
  chromatographic logD: 1.89
[2]; [11]
  remaining at 2 h, 1 uM: 97%
[3]; [12]
  solubility kinetic at 1 h: ≥ 210 µg/mL
[4]; [13]
  Papp at 3 h: < 0.3 ×10⁻⁶ cm/s
Human serum albumin [5]
  % HSA: 79.64%
[6]
  CLint Human: <0.40 mL/min/g tissue
  CLpred Human: <6.35 mL/min/kg
[6]; [14]
  half-life at 0.5 µM: > 139 min
[6]; liver blood flow
  % LBF Human: <35.25%
Mtb H37Rv
  MIC against Mtb H37Rv: 20 µM (≈ 14.8 µg/mL)
[7]; [15]
  remaining at 2 h, 1 uM: 98%

## CC(C)C[C@@H]1NC(=O)[C@H](Cc2c[nH]c3ccccc23)NC(=O)[C@@H](CCCN)NC(=O)[C@H](C)NC(=O)[C@H](C(C)C)NC(=O)[C@@H](CC(C)C)NC1=O [Compound 4c] (cyclo(A[dOrn]WL[dL]V))
[1]; liver blood flow
  % LBF Mouse: <16.27%
[1]
  CLint Mouse: <0.48 mL/min/g tissue
  CLpred Mouse: <20.50 mL/min/kg
[1]; [10]
  half-life at 0.5 µM: > 139 min
Chrom logD assay; pH 7.4, read-out: Log D
  chromatographic logD: 2
[2]; [11]
  remaining at 2 h, 1 uM: 95%
[3]; [12]
  solubility kinetic at 1 h: 143 µg/mL (≈ 205 µM)
[4]; [13]
  Papp at 3 h: < 0.3 ×10⁻⁶ cm/s
Human serum albumin [5]
  % HSA: 83% and 82.76%
[6]
  CLint Human: <0.40 mL/min/g tissue
  CLpred Human: 6.31 mL/min/kg
[6]; [14]
  half-life at 0.5 µM: > 139 min
[6]; liver blood flow
  % LBF Human: <35.08%
Mtb H37Rv
  MIC against Mtb H37Rv: 20 µM (≈ 13.9 µg/mL)
[7]; [15]
  remaining at 2 h, 1 uM: 100%

## CC(C)C[C@@H]1NC(=O)[C@H](Cc2c[nH]c3ccccc23)NC(=O)[C@@H](CCCN)NC(=O)[C@H](CC(N)=O)NC(=O)[C@H](C(C)C)NC(=O)[C@@H](C)NC1=O [Compound 6c] (cyclo(L[dA]VN[dOrn]W))
[1]; liver blood flow
  % LBF Mouse: <16.27%
[1]
  CLint Mouse: <0.48 mL/min/g tissue
  CLpred Mouse: <20.50 mL/min/kg
[1]; [10]
  half-life at 0.5 µM: > 139 min
Chrom logD assay; pH 7.4, read-out: Log D
  chromatographic logD: 1.04
[2]; [11]
  remaining at 2 h, 1 uM: 95%
[3]; [12]
  solubility kinetic at 1 h: ≥ 196 µg/mL
[4]; [13]
  Papp at 3 h: < 1 ×10⁻⁶ cm/s
Human serum albumin [5]
  % HSA: 42.21%
[6]
  CLint Human: 0.73 mL/min/g tissue
  CLpred Human: 8.99 mL/min/kg
[6]; [14]
  half-life at 0.5 µM: 75.1 min
[6]; liver blood flow
  % LBF Human: 49.94%
Mtb H37Rv
  MIC against Mtb H37Rv: >80 µM
[7]; [15]
  remaining at 2 h, 1 uM: 102%

## wollamide B (peptide)
Human serum albumin [8]
  % Human serum albumin binding: 72.7%

## CC(C)C[C@@H]1NC(=O)[C@H](Cc2c[nH]c3ccccc23)NC(=O)[C@@H](CCCN)NC(=O)[C@H](CC(N)=O)NC(=O)[C@H](C(C)C)NC(=O)[C@@H](CC(C)C)NC1=O [Compound 1c, wollamide B] (cyclo([dOrn]WL[dL]VN))
[1]; Table 1
  Mouse CLint: <0.50 mL/min/g
[1]; liver blood flow, Table 1
  Mouse predicted % LBF: <16.83%
[1]; Table 1, read-out: Mouse microsomal half-life
  half-life at 0.5 µM: > 139 min
Chrom logD assay; pH 7.4, Table 1, read-out: Log D pH = 7.4
  chromatographic logD: 1.8
other
  IC50: 56 µM
[2]; 2 h at 37°C, Table 1
  Plasma stability (% remaining), Human Plasma: More than 90 % remaining
[2]; 2 h at 37°C, Table 1, read-out: Plasma stability (% remaining), Human Plasma
  remaining at 2 h, 1 uM: 100%
[3]; kinetic aqueous solubility, Table 1, read-out: Solubility CLND
  solubility kinetic at 1 h: 151 µg/mL (≈ 204 µM)
[4]; Table 1, read-out: Artificial membrane permeability
  Papp at 3 h: < 0.3 ×10⁻⁶ cm/s
Human serum albumin [5]; Table 1
  % Human serum albumin binding: 73% and 72.66%
[6]; Table 1
  Human CLint: 0.97 mL/min/g
[6]; pH 7.4, Table 1, read-out: Human microsomal half-life
  half-life at 0.5 µM: 56.8 min
[6]; liver blood flow, Table 1
  Human predicted % LBF: 56.88%
[6]; predicted hepatic clearance, microsomal stability
  % LBF given as a fraction (metabolic stability class): 1/2
Mtb H37Rv; Table 1
  Mtb H37Rv MIC: 0.6 µM
[7]; 2 h at 37°C, Table 1
  Plasma stability (% remaining), Mouse plasma: More than 90 % remaining
[7]; 2 h at 37°C, Table 1, read-out: Plasma stability (% remaining), Mouse plasma
  remaining at 2 h, 1 uM: 90%
M. bovis
  IC50: 3.1 µM
[9]
  intracellular mycobacterial survival: reduce the intracellular mycobacterial survival

## CC(C)C[C@@H]1NC(=O)[C@H](Cc2c[nH]c3ccccc23)NC(=O)[C@@H](CCCN)NC(=O)[C@H](CC(N)=O)NC(=O)[C@H](C)NC(=O)[C@@H](CC(C)C)NC1=O [Compound 5c] (cyclo(AN[dOrn]WL[dL]))
[1]; liver blood flow
  % LBF Mouse: <16.27%
[1]
  CLint Mouse: <0.48 mL/min/g tissue
  CLpred Mouse: <20.50 mL/min/kg
[1]; [10]
  half-life at 0.5 µM: > 139 min
Chrom logD assay; pH 7.4, read-out: Log D
  chromatographic logD: 1.32
[2]; [11]
  remaining at 2 h, 1 uM: 98%
[3]; [12]
  solubility kinetic at 1 h: 129 µg/mL (≈ 181 µM)
[4]; [13]
  Papp at 3 h: < 1 ×10⁻⁶ cm/s
Human serum albumin [5]
  % HSA: 56.76%
[6]
  CLint Human: <0.40 mL/min/g tissue
  CLpred Human: 6.31 mL/min/kg
[6]; [14]
  half-life at 0.5 µM: > 139 min
[6]; liver blood flow
  % LBF Human: <35.08%
Mtb H37Rv
  MIC against Mtb H37Rv: >80 µM
[7]; [15]
  remaining at 2 h, 1 uM: 96%

## CC(C)C[C@H]1NC(=O)[C@H](C)NC(=O)[C@H](Cc2c[nH]c3ccccc23)NC(=O)[C@@H](CCCN)NC(=O)[C@H](CC(N)=O)NC(=O)[C@H](C(C)C)NC1=O [Compound 2c] (cyclo(A[dL]VN[dOrn]W))
[1]; liver blood flow
  % LBF Mouse: <16.27%
[1]
  CLint Mouse: <0.48 mL/min/g tissue
  CLpred Mouse: <20.50 mL/min/kg
[1]; [10]
  half-life at 0.5 µM: > 139 min
Chrom logD assay; pH 7.4, read-out: Log D
  chromatographic logD: 0.94
[2]; [11]
  remaining at 2 h, 1 uM: 107%
[3]; [12]
  solubility kinetic at 1 h: > 134 µg/mL
[4]; [13]
  Papp at 3 h: < 1 ×10⁻⁶ cm/s
Human serum albumin [5]
  % HSA: 43.14%
[6]
  CLint Human: <0.40 mL/min/g tissue
[6]; [14]
  half-life at 0.5 µM: > 139 min
[6]; liver blood flow
  % LBF Human: <35.08%
Mtb H37Rv
  MIC against Mtb H37Rv: >80 µM
[7]; [15]
  remaining at 2 h, 1 uM: 93%
